Assays:
[1] = system: CT-26 mouse colon adenocarcinoma; assay: Antitumor activity of Compound B alone and with anti-PD-1 in the CT-26 model; format: in vivo, BALB/c mice
Protocol: (§1) The antitumor activity of Compound B as a single agent and combined with a mouse anti-PD-1 antibody was evaluated in the CT-26 mouse colon adenocarcinoma model grown in BALB/c mice. Mice were inoculated subcutaneously in the right flank with 5×10^5 tumor cells. When tumors reached an average size of 71 mm^3 (6 days after tumor cell inoculation) dosing was initiated. The dosing regimens in the 8 separate cohorts comprising 10 mice each are as follows: […]

CT26 tumor cells = assay: CT26 re-inoculation of complete responders versus tumor-naive mice; format: in vivo; conditions: complete responders compared with 6 tumor-naive mice
Source text: CT26 tumor cells were inoculated into 6 tumor-naive mice or complete responders of CT26 tumor-bearing mice previously treated with Compound B and anti-PD-1 alone or in combination.

[2] = system: CT-26 mouse colon adenocarcinoma; assay: Antitumor activity of Compound B alone and with anti-PD1 in the CT-26 model, additional experiment; format: in vivo, BALB/c mice; conditions: CT-26 tumors; Compound B 15 mg/kg BID po; anti-PD1 10 mg/kg ip BIW; n=7/group; FIG. 5
Protocol: as §1, with “mouse anti-PD1” for “mouse anti-PD-1”, “BALB/c mice in an additional experiment.” for “BALB/c mice.”, “of 91” for “of 71”, “mm^3” for “mm^3 (6 days after tumor cell inoculation)”, “the 4” for “the 8”, “comprising 7” for “comprising 10”

4T1 mouse breast cancer [3] = assay: Antitumor activity of Compound B alone and with anti-CTLA4 in the 4T1 model; format: in vivo, BALB/c mice; conditions: 4T1 tumors; Compound B 15 mg/kg BID; n=10/group; FIG. 3
Source text: Mice were inoculated subcutaneously in the right flank with 3×10^5 tumor cells. When tumors reached an average size of 100 mm^3 (7 days after tumor cell inoculation) dosing was initiated.

4T1 mouse breast cancer [4] = assay: Antitumor activity of Compound B alone and with anti-PD1 in the 4T1 model, additional experiment; format: in vivo, BALB/c mice; conditions: 4T1 tumors; Compound B 15 mg/kg BID po; anti-PD1 10 mg/kg ip BIW; n=7/group; FIG. 6
Protocol: The antitumor activity of Compound B as a single agent and combined with a mouse anti-PD1 antibody was evaluated in the 4T1 mouse breast cancer model grown in BALB/c mice in an additional experiment. Mice were inoculated subcutaneously in the right flank with 3×10^5 tumor cells. When tumors reached an average size of 97 mm^3 dosing was initiated. The dosing regimens in the 4 separate cohorts comprising 7 mice each are as follows: […]

CT-26 tumors = assay: Immune cell composition of CT-26 tumors by flow cytometry; format: in vivo, BALB/c mice; conditions: after 7 days of dosing, Compound B 15 mg/kg BID, anti-PD1 10 mg/kg Q3D
Protocol: The immune cell composition of Compound B as a single agent and combined with a mouse anti-PD1 antibody was evaluated in the CT-26 mouse colon adenocarcinoma model grown in BALB/c mice. Mice were inoculated subcutaneously in the right flank with 5×10^5 tumor cells. When tumors reached an average size of 85 mm^3 dosing was initiated. The dosing regimens in the 4 separate cohorts comprising 10 mice each are listed as follows:
After dosing animals for 7 days, tumors were resected and used to prepare single cell suspensions. Live cells representing tumor and immune cells were stained with cocktails of antibodies targeting multiple immune cell markers (anti-CD45, anti-CD3, anti-CD4, anti-CD8, anti-CD25, anti-FoxP3, anti-PD-1, anti-CD11c) conjugated to different fluorescent tags. The stained cells were fixed in 4% paraformaldehyde and quantified using a multi-color flow cytometer (Fortessa). The data was analyzed with FloJo software.

[5] = 99 days after tumor inoculation

With `C[C@H](NC(=O)c1cc(Cl)cnc1Oc1cccc(F)c1)c1ccc(C(=O)O)cc1` [Compound B] the mice still alive [1, 5] was 1 out of 10, the mice tumor free [1, 5] was 1 out of 10 and the “tumor growth kinetics during the period of dosing” value ([1]; CT-26 tumors, Compound B 15 mg/kg QD and BID p.o., anti-PD-1 10 mg/kg i.p., n=10/group, FIG. 1) was “not notably different from the vehicle treated mice”. The “growth of re-inoculated CT26 in complete responders” value (CT26 tumor cells) was “decreased the growth of CT26 relative to naive mice”, the “tumor growth kinetics during the period of dosing” value [2] was “less than that of the vehicle group” and the “tumor growth kinetics during the period of dosing” value (4T1 mouse breast cancer [3]) was “decreased relative to the vehicle treated mice”. The “tumor growth kinetics during the period of dosing” value (4T1 mouse breast cancer [4]) was “less than that of the vehicle group and anti-PD1 when dosed alone”, the “percentage of dendritic cells (CD45, CD11c positive)” value (CT-26 tumors; FIG. 7b) was “increased percentage” and the “regulatory T cells (CD45, CD4, FoxP3, CD25 positive)” value (CT-26 tumors; versus vehicle, FIG. 7a) was “significant decrease”.

— patent publication US10973834B2, “EP4 inhibitors and use thereof” (Arrys Therapeutics, Inc., priority 2018, dated 2021)
